Data reported in US6440903B1, “Substituted 2,4-diamino-1,3,5-triazines as herbicides” (Bayer Aktiengesellschaft, priority 1996, dated 2002).

What was measured:
Assay type in all cases: in vivo
[1] = tested on: weeds; assay: Post-emergence test (summary in text); details: result in words
Description: Solvent: 5 parts by weight of acetone
Emulsifier: 1 part by weight of alkylaryl polyglycol ether
To produce a suitable preparation of active compound, 1 part by weight of active compound is mixed with the stated amount of solvent, the stated amount of emulsifier is added and the concentrate is diluted with water to the desired concentration.
Test plants which have a height of 5-15 cm are sprayed with the preparation of active compound such that the particular amounts of active compounds desired are applied per unit area. The concentration of the spray liquor is chosen so that the particular amounts of active compound desired are applied in 1000 l of water/ha.
After three weeks, the degree of damage to the plants is scored visually in % damage in comparison to the untreated control.
0%=no effect (like untreated control)

[2] = tested on: Viola; assay: Post-emergence test; details: greenhouse, scored after three weeks
Description: (§1) Post-emergence Test Solvent: 5 parts by weight of acetone Emulsifier: 1 part by weight of alkylaryl polyglycol ether To produce a suitable preparation of active compound, 1 part by weight of active compound is mixed with the stated amount of solvent, the stated amount of emulsifier is added and the concentrate is diluted with water to the desired concentration. Test plants which have a height of 5-15 cm are sprayed with the preparation of active compound such that the particular amounts of active compounds desired are applied per unit area. The concentration of the spray liquor is chosen so that the particular amounts of active compound desired are applied in 1000 l of water/ha. After three weeks, the degree of damage to the plants is scored visually in % damage in comparison to the untreated control. The Figures Denote: 0%=no effect (like untreated control) 100%=total destruction

[3] = tested on: Setaria; assay: Post-emergence test; details: greenhouse, scored after three weeks; for pest or weed control at 250 g/ha: Setaria, 504 h, 250 g of ai./ha, read-out: % damage, Setaria
Description: as §1

[4] = tested on: Polygonum; assay: Post-emergence test; details: greenhouse, scored after three weeks
Description: as §1

[5] = tested on: Chenopodium; assay: Post-emergence test; details: greenhouse, scored after three weeks
Description: as §1

[6] = tested on: Wheat; assay: Post-emergence test; details: greenhouse, scored after three weeks
Description: as §1

[7] = tested on: Amaranthus; assay: Post-emergence test; details: greenhouse, scored after three weeks
Description: as §1

[8] = 504 h, 250 g of ai./ha, read-out: % damage, Viola
[9] = Polygonum, 504 h, 250 g of ai./ha, read-out: % damage, Polygonum
[10] = Chenopodium, 504 h, 250 g of ai./ha, read-out: % damage, Chenopodium
[11] = Triticum aestivum, 504 h, 250 g of ai./ha, read-out: % damage, Wheat
[12] = Amaranthus, 504 h, 250 g of ai./ha, read-out: % damage, Amaranthus

Q: For `CCc1nc(N)nc(NC(C)c2ccc(Cl)cc2)n1` (centres unmarked) [Example 153], which activity against weeds [1] is on record?
A: Its activity against weeds is “strong activity”.

Q: For `CC(=O)Nc1nc(NC(C)c2ccc(Cl)cc2)nc(C(C)Cl)n1` (centres unmarked) [drawing 122], which pest or weed control at 250 g/ha [2, 8] is on record?
A: Its pest or weed control at 250 g/ha is 95%.

Q: And the pest or weed control at 250 g/ha [3]?
A: The pest or weed control at 250 g/ha was 80%.

Q: What about the pest or weed control at 250 g/ha [4, 9] of the same molecule?
A: Its pest or weed control at 250 g/ha is 100%.

Q: What about the pest or weed control at 250 g/ha [5, 10] of the same molecule?
A: Its pest or weed control at 250 g/ha is 100%.

Q: What about the plant injury at 250 g/ha [6, 11] of the same molecule?
A: Its plant injury at 250 g/ha is 10%.

Q: What about the pest or weed control at 250 g/ha [7, 12] of the same molecule?
A: The pest or weed control at 250 g/ha was 100%.

Q: How did the activity against weeds [1] turn out when `CCc1nc(N)nc(NC(C)c2ccc(Cl)cc2)n1` (centres unmarked) [Example 91] was run?
A: Its activity against weeds is “strong activity”.

Q: With `CC(Nc1nc(N)nc(C(F)C(F)(F)F)n1)c1ccc(Cl)cc1` (centres unmarked) [drawing 117] as the molecule, how does the pest or weed control at 250 g/ha [2, 8] read?
A: Its pest or weed control at 250 g/ha is 100%.

Q: And the pest or weed control at 250 g/ha [3]?
A: The pest or weed control at 250 g/ha was 95%.

Q: What about the pest or weed control at 250 g/ha [4, 9] of the same molecule?
A: Its pest or weed control at 250 g/ha is 100%.

Q: And the pest or weed control at 250 g/ha [5, 10]?
A: Its pest or weed control at 250 g/ha is 100%.

Q: What about the plant injury at 250 g/ha [6, 11] of the same molecule?
A: The plant injury at 250 g/ha was 10%.

Q: And the pest or weed control at 250 g/ha [7, 12]?
A: The pest or weed control at 250 g/ha was 100%.

Q: For `CC(Nc1nc(N)nc(C(F)(F)F)n1)c1ccc(Cl)cc1` (centres unmarked) [Example 15], which activity against weeds [1] is on record?
A: Its activity against weeds is “strong activity”.

Q: `CCC(Nc1nc(N)nc(C(F)(F)F)n1)c1ccc(Cl)cc1` (centres unmarked) [Example 87] was tested. Which activity against weeds [1] did it give?
A: The activity against weeds was “strong activity”.

Q: For `COCc1nc(N)nc(NC(C)c2ccc(Cl)cc2)n1` (centres unmarked) [drawing 130], which “% damage, Viola” value ([2]; 250 g of ai./ha) is on record?
A: Its value is 100%.

Q: And the “% damage, Polygonum” value ([4]; 250 g of ai./ha)?
A: The value was 100%.

Q: What about the “% damage, Chenopodium” value ([5]; 250 g of ai./ha) of the same molecule?
A: Its value is 100%.

Q: And the “% damage, Wheat” value ([6]; 250 g of ai./ha)?
A: The value was 10%.

Q: What about the “% damage, Amaranthus” value ([7]; 250 g of ai./ha) of the same molecule?
A: The value was 100%.

Q: Which “% damage, Viola” value ([2]; 500 g of ai./ha) does the source give for `CCc1nc(N)nc(NC(C)c2ccc(Cl)cc2)n1` (centres unmarked) [drawing 127] here?
A: Its value is 100%.

Q: What about the “% damage, Setaria” value ([3]; 500 g of ai./ha) of the same molecule?
A: The value was 100%.

Q: And the “% damage, Polygonum” value ([4]; 500 g of ai./ha)?
A: Its value is 100%.

Q: And the “% damage, Chenopodium” value ([5]; 500 g of ai./ha)?
A: The value was 100%.

Q: And the “% damage, Amaranthus” value ([7]; 500 g of ai./ha)?
A: Its value is 100%.

Q: Which activity against weeds [1] does the source give for `CC(Cl)c1nc(N)nc(NC(C)c2ccc(Cl)cc2)n1` (centres unmarked) [Example 171] here?
A: Its activity against weeds is “strong activity”.

Q: For `CC(Nc1nc(N)nc(Cl)n1)c1ccc(Cl)cc1` (centres unmarked) [Example 8], which activity against weeds [1] is on record?
A: The activity against weeds was “strong activity”.

Q: With `CC(Nc1nc(N)nc(Cl)n1)c1ccc(Cl)cc1` (centres unmarked) [Example 5] as the molecule, how does the activity against weeds [1] read?
A: Its activity against weeds is “strong activity”.

Q: What does the source list for `COc1ccc(C(C)Nc2nc(N)nc(C(C)F)n2)cc1` (centres unmarked) [drawing 136]?
A: pest or weed control at 250 g/ha [2, 8]: 95%; pest or weed control at 250 g/ha [4, 9]: 100%; pest or weed control at 250 g/ha [5, 10]: 100%; plant injury at 250 g/ha [6, 11]: 10%; pest or weed control at 250 g/ha [7, 12]: 100%

Q: With `COc1ccc(C(C)Nc2nc(N)nc(C(C)F)n2)cc1` (centres unmarked) [Example 190] as the molecule, how does the activity against weeds [1] read?
A: The activity against weeds was “strong activity”.

Q: `COc1ccc(C(C)Nc2nc(N)nc(C(F)(F)F)n2)cc1` (centres unmarked) [Example 79] was tested. Which activity against weeds [1] did it give?
A: Its activity against weeds is “strong activity”.

Q: `CCc1nc(N)nc(NC(C)c2ccc(Cl)cc2)n1` (centres unmarked) [Example 166] was tested. Which activity against weeds [1] did it give?
A: The activity against weeds was “strong activity”.

Q: Which pest or weed control at 1000 g/ha ([2]; 504 h, 1000 g of ai./ha, read-out: % damage, Viola) does the source give for `CCC(Nc1nc(N)nc(C(F)(F)F)n1)c1ccc(Cl)cc1` (centres unmarked) [drawing 139] here?
A: Its pest or weed control at 1000 g/ha is 100%.

Q: And the pest or weed control at 1000 g/ha ([4]; Polygonum, 504 h, 1000 g of ai./ha, read-out: % damage, Polygonum)?
A: Its pest or weed control at 1000 g/ha is 100%.

Q: And the pest or weed control at 1000 g/ha ([5]; Chenopodium, 504 h, 1000 g of ai./ha, read-out: % damage, Chenopodium)?
A: The pest or weed control at 1000 g/ha was 100%.

Q: What about the plant injury at 1000 g/ha ([6]; Triticum aestivum, 504 h, 1000 g of ai./ha, read-out: % damage, Wheat) of the same molecule?
A: Its plant injury at 1000 g/ha is 10%.

Q: And the pest or weed control at 1000 g/ha ([7]; Amaranthus, 504 h, 1000 g of ai./ha, read-out: % damage, Amaranthus)?
A: Its pest or weed control at 1000 g/ha is 100%.

Q: How did the activity against weeds [1] turn out when `COCc1nc(N)nc(NC(C)c2ccc(Cl)cc2)n1` (centres unmarked) [Example 170] was run?
A: Its activity against weeds is “strong activity”.

Q: With `CC(Nc1nc(N)nc(C(Cl)Cl)n1)c1ccc(Cl)cc1` (centres unmarked) [Example 94] as the molecule, how does the activity against weeds [1] read?
A: The activity against weeds was “strong activity”.
